Where a chain is given by its changes, count along the chain named. Where two headings read alike, the source gives them in different places.
Assays:
[1] = test system: mock-transfected HEK293 cells (Gα16-gust44 only); experiment: Calcium mobilization assay, mock-transfected cells (Gα16-gust44 only); format: cell-based, human; conditions: any concentration tested (cromolyn 10 mM)
Procedure: (§1) Human embryonic kidney 293 (PEAKrapid, ATCC # CRL-2828) cells were cultured in Opti-MEM medium with 4% fetal bovine serum. One day before transfection, cells were seeded on a 96-well plate at a density of 25 000 per well. Cells were then transiently transfected with a TAS2R construct (0.1 µg/well) along with a G protein Gα16-gust44 (0.1 µg/well) construct by Lipofectamine 2000 (0.5 µl/well). For controls, only Gα16-gust44 was used (mock transfection). Twenty-four hours after transfection, cells were washed with HBSS including 10 mM HEPES and loaded with Fluo-4 in the dark for 1 h. After incubation, cells were washed 2 times with HBSS (including 10 mM HEPES), incubated in the dark for another 30 min, and then washed with assay solution once more before running the assay using a FlexStation III reader. Relative fluorescence units (excitation at 494 nm, emission at 516 nm, and auto cutoff at 515 nm) were read every 2 s for 2 min. Calcium mobilization traces were recorded.
Calcium mobilization traces were raw data obtained from single wells. Changes in fluorescence (ΔF) were calculated as the peak fluorescence minus baseline fluorescence ([Lei et al. 2015]). The calcium mobilization was quantified as the percentage of change (ΔF) relative to baseline (F). […] Calcium mobilization traces and bar graphs along with dose-dependent plots were all generated by GraphPad Prism 7. […]

[2] = test system: CaSR; conditions: ref Spurney et al. 1999; cited from earlier work
[3] = parameters: method as in Lau et al. 1991; conditions: administered systemically, animal studies; ref Lau et al. 1991; cited from earlier work
[4] = molecular target: T1, human TAS2R7 (Homo sapiens, UniProt Q9NYW3); experiment: Calcium mobilization assay, HEK293 cells transfected with TAS2R7 and Gα16-gust44; format: cell-based
T1 construct: first 45 residues of rat somatostatin receptor 3 (signal peptide) (N); expressed in transfected cells; host or cells: HEK293 (PEAKrapid, ATCC CRL-2828)
T1 sequence (Q9NYW3 1-318): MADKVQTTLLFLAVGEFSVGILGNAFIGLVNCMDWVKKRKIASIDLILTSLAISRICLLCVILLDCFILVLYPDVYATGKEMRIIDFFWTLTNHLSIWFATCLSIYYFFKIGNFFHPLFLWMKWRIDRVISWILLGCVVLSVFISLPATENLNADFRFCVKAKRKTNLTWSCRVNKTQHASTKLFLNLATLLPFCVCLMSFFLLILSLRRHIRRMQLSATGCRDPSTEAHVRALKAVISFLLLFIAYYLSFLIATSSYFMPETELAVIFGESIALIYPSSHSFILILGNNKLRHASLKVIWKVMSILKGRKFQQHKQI
Source text: (§2) The coding sequences of human TAS2Rs were amplified from human genomic DNA, then subcloned into pcDNA3.1(+) vector, with the herpes simplex virus glycoprotein D epitope (HSV) at the C-terminal and a signal peptide consisting of the first 45 amino acid residues of the rat somatostatin receptor 3 at the N-terminal, essentially as described previously ([Bufe et al. 2002]). Point mutations in human TAS2R7 (NCBI Reference Sequence: NP_076408.1) were constructed by site-directed mutagenesis. All the constructs were confirmed by Sanger sequencing.
All tested compounds were purchased from Sigma–Aldrich, with the exception of diphenidol hydrochloride (Reagent World) and L-praziquantel (manufactured by Shaoxing Pharmaceutical Co. Ltd.). All the metal ions were dissolved in the assay solution (130 mM NaCl, 5 mM KCl, 2 mM CaCl2, and 10 mM glucose; pH 7.4) unless specified otherwise, and the bitter compounds (diphenidol, quinine, and chlorphenamine) were dissolved first in dimethyl sulfoxide (DMSO) as stock solution and then diluted with the assay solution; the final DMSO concentration was below 0.5%, with the exception of cromolyn, which is dissolved in the assay solution directly. For our initial screening (Table 1), Hanks’ balanced salt solution (HBSS, ThermoFisher, catalog no. 14025134) supplemented with 10 mM hydroxyethyl piperazineethanesulfonic acid (HEPES) were used as the assay buffer.
as §1
(§3) Calcium mobilization traces were raw data obtained from single wells. Changes in fluorescence (ΔF) were calculated as the peak fluorescence minus baseline fluorescence ([Lei et al. 2015]). The calcium mobilization was quantified as the percentage of change (ΔF) relative to baseline (F). […] Calcium mobilization traces and bar graphs along with dose-dependent plots were all generated by GraphPad Prism 7. Analysis of variance with Dunnett’s multiple comparisons test was used for statistical analysis. *P < 0.05.
To determine whether a TAS2R responds to metal ions, we expressed all 25 human bitter receptors individually in HEK293 cells (PEAKrapid) by transient transfection of a TAS2R along with a coupling chimeric G protein, Gα16-gust44. All TAS2Rs were cloned from human genomic DNA. Activation of human TAS2Rs was monitored by the calcium mobilization assay ([Lei et al. 2015]). We tested these receptors individually for their responses toward metal ions: ZnSO4 (20 mM), CuSO4 (20 mM), and MgCl2 (20 mM) (Table 1, Figure 1A). […] To determine the breadth of tuning of TAS2R7 toward metal ions, we also tested MnCl2 (20 mM), Al2(SO4)3 ([…]), and CaCl2 (20 mM) (Figure 1B).

[5] = molecular target: T2, human TAS2R7 E264^7.32L mutant (Homo sapiens, UniProt Q9NYW3, E264L); experiment: Calcium mobilization assay, TAS2R7 mutant E264L; format: cell-based; conditions: 20 mM metal ions except 0.16 mM Al2(SO4)3; cromolyn 10 mM; Figure 6B
T2 construct: signal peptide: first 45 amino acid residues of rat somatostatin receptor 3 (N); expressed in transfected cells; host or cells: HEK293 PEAKrapid (ATCC CRL-2828), transient, co-transfected with Gα16-gust44
T2 sequence (Q9NYW3 1-318 E264L): T1 sequence (Q9NYW3 1-318) with E264L
Source text: as §2, §1
as §3, with “0.05. […]” for “0.05.”

[6] = molecular target: T3, human TAS2R7 E264^7.32K mutant (Homo sapiens, UniProt Q9NYW3, E264K); experiment: Calcium mobilization assay, TAS2R7 mutant E264K; format: cell-based; conditions: 20 mM metal ions except 0.16 mM Al2(SO4)3; cromolyn 10 mM; Figure 6B
T3 construct: signal peptide: first 45 amino acid residues of rat somatostatin receptor 3 (N); expressed in transfected cells; host or cells: HEK293 PEAKrapid (ATCC CRL-2828), transient, co-transfected with Gα16-gust44
T3 sequence (Q9NYW3 1-318 E264K): T1 sequence (Q9NYW3 1-318) with E264K
Source text: as §2, §1, §3
To assess the importance of these residues, we performed site-directed mutagenesis. We mutated the negatively charged residues E16^1.42, E264^7.32, and E271^7.39 to Q (glutamine), K (lysine), or L (leucine). The facing H94^3.37 was mutated to F (phenylalanine). HEK293 cells that expressed mutant receptors along with Gα16-gust44 were examined for their responses to metal ions (20 mM for all except 0.16 mM Al2(SO4)3) and cromolyn (10 mM, as a positive control) to assess receptor’s function. To determine the expression level of each receptor, we stained the wild-type or mutant receptor-transfected cells using an anti-HSV antibody since all the receptors are tagged with HSV at c-terminal. […]

Activation of TAS2R7 by metal ions ([4]; 20 mM, Figure 1A,B): activated the receptor
Dose dependence of TAS2R7 response ([4]; Figure 2A,C): dose-dependent responses
EC50 ([4]; assay solution containing calcium, Figure 3A, read-out: EC50, TAS2R7, in the presence of calcium): 29 µM
EC50 ([4]; assay solution containing no calcium, Figure 3A, read-out: EC50, TAS2R7, in the absence of calcium): 55 µM
EC50 ([4]; assay solution with 2 mM CaCl2, Figure 2, read-out: EC50, TAS2R7 concentration-response): 39 ± 15 µM
Response of E264L mutant receptor [5]: insensitive
Response of E264K mutant receptor [6]: specific loss of responses
Compound: O=S(=O)([O-])[O-].O=S(=O)([O-])[O-].O=S(=O)([O-])[O-].[Al+3].[Al+3] [Al2(SO4)3, aluminum sulfate]
Response of mock-transfected cells [1]: no responses
Activity at CaSR [2]: weak agonist
Concentration reached in serum [3]: 50 µM

Source: article PMC6538953, “Metal Ions Activate the Human Taste Receptor TAS2R7” (Chemical Senses, 2019)
